Tests used:
[1] = Tail-flick Antagonist Test against meperidine; details: Rattus norvegicus, read-out: AD50 (95% Confidence Limits)
[2] = Anti-phenylquinone Writhing Test; format: in vivo; details: Mus musculus, mice, expressed as free base, read-out: ED50 (95% Confidence Limits)
Tail-flick Agonist Test = format: in vivo; details: doses up to 120 mg./kg. subcutaneously, rats
[3] = Anti-acetylcholine Writhing Test; format: in vivo; details: mice; for ED50: Mus musculus, read-out: ED50 (95% Confidence Limits); for ED50 / ED50 (95% Confidence Limits): expressed as free base
Excerpt: This response has been called writhing.

Anti-bradykinin Test = format: in vivo; details: rats, expressed as free base; for ED50: Rattus norvegicus, read-out: ED50 (95% Confidence Limits)
[4] = Tail-flick Antagonist Test against phenazocine; details: for ED50: Rattus norvegicus, read-out: AD50 (95% Confidence Limits); for antagonist response at 1 mg./kg.: 1 mg./kg. subcutaneous; for antagonist response at 10 mg./kg.: 10 mg./kg. subcutaneous
[5] = Comparison in three of the foregoing tests with the compound lacking 9-amino; details: relative to Gubitz compound
[6] = Tail-flick Antagonist Test against morphine; details: Rattus norvegicus, read-out: AD50 (95% Confidence Limits)
[7] = EDTA Antinociceptive Test; format: in vivo; details: Cavia porcellus, sc, 0.5 h; subcutaneous, guinea pig, 30 minutes; read-out: subcutaneously effective dose (reduces the response score to 6 or less)
Method: This is also a confirmatory evaluation of analgesic activity. The test animal is the guinea pig. A threshold intradermal dose of ethylenediaminetetraacetic acid (EDTA) which can reproducibly elicit a cumulative response score of 12-18 discrete episodes of jumping, rearing, running, vocalization and biting or scratching at the site of injection within 40 seconds after challenge is determined for each animal. Thirty minutes after the administration of saline or test compound to 6-7 animals per dose, each animal is again challenged with its own threshold dose of EDTA. An effective drug dose is considered to be one which reduces the response score to 6 or less.

## Nc1ccc2c(c1)N1CCN(CC3CC3)C(C2)C1 (racemic) [Example 1D, 4-cyclopropylmethyl-9-amino-3,4,5,6-tetrahydro-2H-1,5-methano-1,4-benzodiazocine]
[1]; sc
  ED50: 3.3 mg/kg
[2]; sc, subcutaneous
  ED50: 1.8 mg/kg
[2]; oral
  ED50: 5.7 mg/kg
Tail-flick Agonist Test
  tail-flick agonist activity: at most inactive or questionably active
[3]; po
  ED50: 5.9 mg/kg
[3]; sc, subcutaneous
  ED50: 3.2 mg/kg
[3]; oral
  ED50 (95% Confidence Limits): 5.9 (3.9-8.7) Mg./Kg.
[3]; subcutaneous
  ED50 (95% Confidence Limits): 3.2 (2.0-4.8) Mg./Kg.
Anti-bradykinin Test; sc, subcutaneous
  ED50: 2.6 mg/kg
Anti-bradykinin Test; oral
  ED50: 5.4 mg/kg
Anti-bradykinin Test; subcutaneous
  ED50 (95% Confidence Limits): 2.6 (1.5-4.1) Mg./Kg.
[4]; sc
  ED50: 1.6 mg/kg
[4]; subcutaneous, against phenazocine, expressed as free base
  AD50 (95% Confidence Limits): 1.6 (1.0-2.6) mg./kg.
[5]
  times more potent than the compound of Formula A (lacking 9-amino): four to ten
[6]; sc
  ED50: 8.6 mg/kg
[7]
  minimal effective dose: 1.25 mg/kg

## c1ccc2c(c1)CC1CN2CCN1CC1CC1 (stereo not shown) [Compound of Formula A*, 4-cyclopropylmethyl-3,4,5,6-tetrahydro-2H-1,5-methano-1,4-benzodiazocine, reference compound]
[3]; po
  ED50: 32 mg/kg
[3]; sc, subcutaneous
  ED50: 12 mg/kg
Anti-bradykinin Test; sc, subcutaneous
  ED50: 21 mg/kg
[4]; sc
  ED50: 34 mg/kg

## CCS(=O)(=O)O.CCS(=O)(=O)O.Nc1ccc2c(c1)N1CCN(CC3CC3)C(C2)C1 (stereo not shown) [Example 1E, 4-cyclopropylmethyl-9-amino-3,4,5,6-tetrahydro-2H-1,5-methano-1,4-benzodiazocine diethanesulfonate]
[1]; po
  ED50: 4.8 mg/kg
Tail-flick Agonist Test
  tail-flick agonist activity: at most inactive or questionably active
[3]; sc, subcutaneous
  ED50: 3.7 mg/kg
Anti-bradykinin Test; oral
  ED50: 4.2 mg/kg
[4]; po
  ED50: 3.5 mg/kg
[6]; po
  ED50: 13 mg/kg

## Nc1ccc2c(c1)N1CCN(CC3CC3)C(C2)C1 (stereo not shown) [Example 1J, levo-4-cyclopropylmethyl-9-3,4,5,6-tetrahydro-2H-1,5-methano-1,4-benzodiazocine]
[3]; 75 mg./kg. subcutaneous
  response at 75 mg./kg. (highest dose tested): 67%
[3]; subcutaneous
  ED50 (95% Confidence Limits): 40 Mg./Kg.
[4]; against phenazocine
  antagonist response at 1 mg./kg.: 10%
  antagonist response at 10 mg./kg.: 6%
[4]; 80 mg./kg. subcutaneous, against phenazocine
  antagonist response at 80 mg./kg.: 25%

## Nc1ccc2c(c1)N1CCN(CC3CC3)C(C2)C1 (stereo not shown) [Example 1K, dextro-4-cyclpropylmethyl-9-amino-3,4,5,6-tetrahydro-2H-1,5-methano-1,4-benzodiazocine]
[3]; subcutaneous
  ED50 (95% Confidence Limits): 1.0 (0.62-2.0) Mg./Kg.
[4]; sc
  ED50: 0.31 mg/kg

## C=CCN1CCN2CC1Cc1ccc(N)cc12 (stereo not shown) [Example 2E, 4-allyl-9-amino-3,4,5,6-tetrahydro-2H-1,5-methano-1,4-benzodiazocine diethanesulfonate hemihydrate]
[3]; sc, subcutaneous
  ED50: 30 mg/kg
[4]; sc
  ED50: 1.6 mg/kg

## CCNc1ccc2c(c1)N1CCN(CC3CC3)C(C2)C1.Cl.Cl (stereo not shown) [Example 3B, 4-cyclopropylmethyl-9-ethylamino-3,4,5,6-tetrahydro-2H-1,5-methano-1,4-benzodiazocine dihydrochloride]
Tail-flick Agonist Test
  tail-flick agonist activity: at most inactive or questionably active
[3]; sc, subcutaneous
  ED50: 3.8 mg/kg
Anti-bradykinin Test; sc, subcutaneous
  ED50: 3.4 mg/kg
[4]; sc
  ED50: 4.4 mg/kg

## CCCCNc1ccc2c(c1)N1CCN(CC3CC3)C(C2)C1 (stereo not shown) [Example 4B, 4-cyclopropylmethyl-9-butylamino-3,4,5,6-tetrahydro-2H-1,5-methano-1,4-benzodiazocine]
Tail-flick Agonist Test
  tail-flick agonist activity: at most inactive or questionably active
[3]; sc, subcutaneous
  ED50: 1.6 mg/kg
Anti-bradykinin Test; sc, subcutaneous
  ED50: 2.9 mg/kg
[4]; against phenazocine
  antagonist response at 1 mg./kg.: 6%
  antagonist response at 10 mg./kg.: 0%
[4]; 20 mg./kg. subcutaneous, against phenazocine
  antagonist response at 20 mg./kg.: 34%
[4]; 20 mg./kg. subcutaneous, rats
  toxic effects at 20 mg./kg.: toxic effects

From patent US4299830A, “1,5-Methano-1,4-benzodiazocines, intermediates therefor, and method of use and compositions thereof” (Sterling Drug Inc., priority 1980, dated 1981)
